Test results from patent US9486447B2, “Compositions and methods for controlling neuronal excitation” (The General Hospital Corporation, priority 2011, dated 2016).

Columns and labels:
hERG potassium channel = hERG potassium channel (Homo sapiens, UniProt Q12809); experiment: hERG inhibition, FluxOR system; type: cell-based; settings: with or without prior exposure to light
Protocol: Optovin (PDSP 22594) was tested for hERG inhibition using the FluxOR system with cisapride as a positive control.

[1] = Reactive oxygen species generation (singlet oxygen sensor green, NBT); type: physicochemical
Description: (§1) How might optovin activate TRPA1? When molecules absorb light, photons can excite electrons from their ground state to a […] via intersystem crossing^37. These photoactivated compounds can then undergo reactions by transferring energy or electrons to target molecules, including aqueous molecular oxygen. Optovin is a yellow-colored compound with peak absorbance at 415 nm (FIG. 4A). To determine if optovin is photochemically reactive, it was exposed to increasing intensities of 415 nm light and assayed for reactive oxygen species (ROS) generation.
(§2) Assay for singlet oxygen generation using singlet oxygen sensor green (SOSG) UV-vis absorption spectra were recorded at 20 uM in methanol using an Evolution 300 UV-Vis Spectrophotometer (Thermo Fisher Scientific Inc., Waltham, Mass.). 96-well black-sided plates were used for fluorescent probe experiments. SOSG (Molecular Probes Invitrogen, Eugene, Oreg.) as a 1 mM stock solution in DMF was added to give final concentration of 5 μM SOSG, to optovin and analogues dissolved as 5 μM solutions in 200 μL 50% H2O/CH3CN preloaded in 96-well plates. An Omnilux Clear-U LED light source (Photo Therapeutics Inc), Carlsbad, Calif.) that emits blue light 415-nm+15-nm as a homogeneous spot with an irradiance of 50 mW/cm^2 measured with a power meter (model DMM 199 with 201 standard head; Coherent, Santa Clara, Calif.) that covers an area of one half of a 96-well plate.
Fluorescence spectrophotometry was carried out with SpectraMax M5 plate reader (Molecular Devices, Sunnyvale, Calif.) using excitation and emission at 504 and 525-nm Fluorescence was read after each successive increment of blue light was delivered. As a positive control for a known photosensitizer that absorbs 415-nm light with a quantum yield of singlet oxygen of approximately 0.6 we used a conjugate between polyethylenimine and chlorin(e6) (PEI-ce6)^46.

[2] = UV-Vis absorbance spectrum; type: physicochemical
Description: as §1
as §2, with “SOSG (Molecular Probes Invitrogen, Eugene, Oreg.) as a 1 mM stock solution in DMF was added to give final concentration of 5 μM SOSG, to optovin and analogues dissolved as 5 μM solutions in 200 μL 50% H2O/CH3CN preloaded in 96-well plates.” left out

Beta2 = target: T1, Beta2 (Homo sapiens, UniProt P07550); experiment: NIMH PDSP binding assay; settings: primary screening, mean of N = 4 determinations
T1 construct: NIMH PDSP
Description: (§3) To determine if optovin's mechanism of action could be predicted via behavioral profiling^30,32, optovin's behavioral profile was compared to the behavioral profiles of 700 annotated neuroactive compounds tested in triplicate. These compounds include ligands targeting the adrenergic, serotonergic, histaminergic, dopaminergic, cholinergic and glutamatergic pathways. […] To gain insight into optovin's mechanism of action, optovin and two active optovin analogs were profiled using the National Institutes of Mental Health Psychoactive Drug Screening Program (NIMH PDSP) to determine their activities against a panel of human and rodent CNS receptors, channels and transporters.
(§4) Activity determinations were generously provided by the National Institute of Mental Health's Psychoactive Drug Screening Program, Contract # HHSN-271-2008-00025-C(NIMH PDSP). Complete assay details are found on-line at: http://pdsp.med.unc.edu/UNC-CH %20Protocol %20Book.pdf

5-HT7 = 5-HT7 (Homo sapiens, UniProt P34969); experiment: NIMH PDSP binding assay; settings: primary screening, mean of N = 4 determinations
Description: as §3, §4

A4B2 = A4B2 (Rattus norvegicus, UniProt P09483+P12390); experiment: NIMH PDSP binding assay; settings: primary screening, mean of N = 4 determinations
Description: as §3, §4

5-ht5a = 5-ht5a (Homo sapiens, UniProt P47898); experiment: NIMH PDSP binding assay; settings: primary screening, mean of N = 4 determinations
Description: as §3, §4

Alpha1A = Alpha1A (Homo sapiens, UniProt P35348); experiment: NIMH PDSP binding assay; settings: primary screening, mean of N = 4 determinations
Description: as §3, §4

BZP Rat Brain Site = experiment: NIMH PDSP binding assay; settings: primary screening, mean of N = 4 determinations
Description: as §3, §4

5-HT6 = 5-HT6 (Homo sapiens, UniProt P50406); experiment: NIMH PDSP binding assay; settings: primary screening, mean of N = 4 determinations
Description: as §3, §4

M4 = target: T2, M4 (Homo sapiens, UniProt P08173); experiment: NIMH PDSP binding assay; settings: primary screening, mean of N = 4 determinations
T2 construct: NIMH PDSP
Description: as §3, §4

D1 = target: T3, D1 (Homo sapiens, UniProt P21728); experiment: NIMH PDSP binding assay; settings: primary screening, mean of N = 4 determinations
T3 construct: NIMH PDSP
Description: as §3, §4

A4B4 = A4B4 (Rattus norvegicus, UniProt P09483+P12392); experiment: NIMH PDSP binding assay; settings: primary screening, mean of N = 4 determinations
Description: as §3, §4

Alpha1D = Alpha1D (Homo sapiens, UniProt P25100); experiment: NIMH PDSP binding assay; settings: primary screening, mean of N = 4 determinations
Description: as §3, §4

D5 = target: T4, D5 (Homo sapiens, UniProt P21918); experiment: NIMH PDSP binding assay; settings: primary screening, mean of N = 4 determinations
T4 construct: NIMH PDSP
Description: as §3, §4

SERT = target: T5, SERT (Homo sapiens, UniProt P31645); experiment: NIMH PDSP binding assay; settings: primary screening, mean of N = 4 determinations
T5 construct: NIMH PDSP
Description: as §3, §4

Alpha2B = Alpha2B (Homo sapiens, UniProt P18089); experiment: NIMH PDSP binding assay; settings: primary screening, mean of N = 4 determinations
Description: as §3, §4

D3 = target: T6, D3 (Homo sapiens, UniProt P35462); experiment: NIMH PDSP binding assay; settings: primary screening, mean of N = 4 determinations
T6 construct: NIMH PDSP
Description: as §3, §4

KOR = target: T7, KOR (Homo sapiens, UniProt P41145); experiment: NIMH PDSP binding assay; settings: primary screening, mean of N = 4 determinations
T7 construct: NIMH PDSP
Description: as §3, §4

PBR = PBR (Rattus norvegicus, UniProt P16257); experiment: NIMH PDSP binding assay; settings: primary screening, mean of N = 4 determinations
Description: as §3, §4

A2B4 = A2B4 (Rattus norvegicus, UniProt P12389+P12392); experiment: NIMH PDSP binding assay; settings: primary screening, mean of N = 4 determinations
Description: as §3, §4

A3B2 = A3B2 (Rattus norvegicus, UniProt P04757+P12390); experiment: NIMH PDSP binding assay; settings: primary screening, mean of N = 4 determinations
Description: as §3, §4

GABAA = experiment: NIMH PDSP binding assay; settings: primary screening, mean of N = 4 determinations
Description: as §3, §4

5-HT2A = 5-HT2A (Homo sapiens, UniProt P28223); experiment: NIMH PDSP binding assay; settings: primary screening, mean of N = 4 determinations
Description: as §3, §4

M2 = target: T8, M2 (Homo sapiens, UniProt P08172); experiment: NIMH PDSP binding assay; settings: primary screening, mean of N = 4 determinations
T8 construct: NIMH PDSP
Description: as §3, §4

H2 = target: T9, H2 (Homo sapiens, UniProt P25021); experiment: NIMH PDSP binding assay; settings: primary screening, mean of N = 4 determinations
T9 construct: NIMH PDSP
Description: as §3, §4

D2 = target: T10, D2 (Homo sapiens, UniProt P14416); experiment: NIMH PDSP binding assay; settings: primary screening, mean of N = 4 determinations
T10 construct: NIMH PDSP
Description: as §3, §4

D4 = target: T11, D4 (Homo sapiens, UniProt P21917); experiment: NIMH PDSP binding assay; settings: primary screening, mean of N = 4 determinations
T11 construct: NIMH PDSP
Description: as §3, §4

Sequence of A4B2 (P09483 31-630): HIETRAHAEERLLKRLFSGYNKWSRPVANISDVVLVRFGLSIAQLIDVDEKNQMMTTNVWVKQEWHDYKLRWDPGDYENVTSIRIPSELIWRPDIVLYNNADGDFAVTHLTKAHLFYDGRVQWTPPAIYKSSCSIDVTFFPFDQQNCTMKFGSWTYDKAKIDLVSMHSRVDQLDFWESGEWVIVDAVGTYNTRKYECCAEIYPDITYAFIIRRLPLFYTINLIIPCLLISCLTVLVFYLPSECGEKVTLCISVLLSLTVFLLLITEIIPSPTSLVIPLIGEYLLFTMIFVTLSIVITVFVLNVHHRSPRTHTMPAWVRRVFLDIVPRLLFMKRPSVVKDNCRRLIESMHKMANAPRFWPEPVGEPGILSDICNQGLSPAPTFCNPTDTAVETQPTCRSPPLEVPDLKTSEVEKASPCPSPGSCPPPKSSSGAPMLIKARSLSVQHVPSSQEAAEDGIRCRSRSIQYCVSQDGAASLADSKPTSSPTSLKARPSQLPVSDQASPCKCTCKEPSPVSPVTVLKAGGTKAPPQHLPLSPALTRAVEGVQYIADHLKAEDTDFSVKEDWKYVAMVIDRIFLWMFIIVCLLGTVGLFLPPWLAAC
Sequence of A4B2 (P12390 25-500): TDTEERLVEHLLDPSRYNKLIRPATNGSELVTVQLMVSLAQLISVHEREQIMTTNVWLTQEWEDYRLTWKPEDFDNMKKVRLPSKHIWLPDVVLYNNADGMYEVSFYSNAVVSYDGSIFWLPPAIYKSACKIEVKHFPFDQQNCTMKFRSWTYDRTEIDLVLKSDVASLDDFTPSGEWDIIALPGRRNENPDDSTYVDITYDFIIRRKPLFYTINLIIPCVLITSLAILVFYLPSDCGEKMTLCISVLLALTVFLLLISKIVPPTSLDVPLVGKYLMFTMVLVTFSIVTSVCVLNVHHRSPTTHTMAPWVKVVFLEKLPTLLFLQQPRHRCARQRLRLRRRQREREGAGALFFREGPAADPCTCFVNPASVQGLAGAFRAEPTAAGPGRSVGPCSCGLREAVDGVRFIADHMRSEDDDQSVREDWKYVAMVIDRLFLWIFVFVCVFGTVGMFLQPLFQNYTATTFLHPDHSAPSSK
T2 sequence (P08173 whole entry): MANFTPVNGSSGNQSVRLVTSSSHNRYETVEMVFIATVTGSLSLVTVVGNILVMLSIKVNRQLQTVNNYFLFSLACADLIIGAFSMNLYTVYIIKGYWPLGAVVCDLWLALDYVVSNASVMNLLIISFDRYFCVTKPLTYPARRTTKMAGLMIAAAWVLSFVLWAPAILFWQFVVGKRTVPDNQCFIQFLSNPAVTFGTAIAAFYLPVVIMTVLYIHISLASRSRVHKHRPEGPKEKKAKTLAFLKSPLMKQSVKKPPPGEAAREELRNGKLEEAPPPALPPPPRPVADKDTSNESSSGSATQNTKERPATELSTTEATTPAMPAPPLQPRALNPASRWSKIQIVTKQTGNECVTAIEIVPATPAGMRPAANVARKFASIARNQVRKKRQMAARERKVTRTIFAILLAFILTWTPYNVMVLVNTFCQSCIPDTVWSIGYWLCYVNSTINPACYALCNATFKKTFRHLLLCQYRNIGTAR
T1 sequence (P07550 whole entry): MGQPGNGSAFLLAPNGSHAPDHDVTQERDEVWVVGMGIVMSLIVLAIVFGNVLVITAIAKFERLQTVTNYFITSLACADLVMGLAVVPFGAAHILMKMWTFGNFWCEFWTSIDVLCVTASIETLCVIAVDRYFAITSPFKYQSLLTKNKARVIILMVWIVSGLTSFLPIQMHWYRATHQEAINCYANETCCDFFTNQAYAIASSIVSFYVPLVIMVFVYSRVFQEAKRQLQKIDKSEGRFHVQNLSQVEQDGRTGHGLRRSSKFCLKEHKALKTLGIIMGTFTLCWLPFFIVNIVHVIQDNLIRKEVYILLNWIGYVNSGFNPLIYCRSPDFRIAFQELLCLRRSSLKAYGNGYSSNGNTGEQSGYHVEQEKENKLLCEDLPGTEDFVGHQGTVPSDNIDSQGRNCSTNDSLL
Sequence of hERG potassium channel (Q12809 whole entry): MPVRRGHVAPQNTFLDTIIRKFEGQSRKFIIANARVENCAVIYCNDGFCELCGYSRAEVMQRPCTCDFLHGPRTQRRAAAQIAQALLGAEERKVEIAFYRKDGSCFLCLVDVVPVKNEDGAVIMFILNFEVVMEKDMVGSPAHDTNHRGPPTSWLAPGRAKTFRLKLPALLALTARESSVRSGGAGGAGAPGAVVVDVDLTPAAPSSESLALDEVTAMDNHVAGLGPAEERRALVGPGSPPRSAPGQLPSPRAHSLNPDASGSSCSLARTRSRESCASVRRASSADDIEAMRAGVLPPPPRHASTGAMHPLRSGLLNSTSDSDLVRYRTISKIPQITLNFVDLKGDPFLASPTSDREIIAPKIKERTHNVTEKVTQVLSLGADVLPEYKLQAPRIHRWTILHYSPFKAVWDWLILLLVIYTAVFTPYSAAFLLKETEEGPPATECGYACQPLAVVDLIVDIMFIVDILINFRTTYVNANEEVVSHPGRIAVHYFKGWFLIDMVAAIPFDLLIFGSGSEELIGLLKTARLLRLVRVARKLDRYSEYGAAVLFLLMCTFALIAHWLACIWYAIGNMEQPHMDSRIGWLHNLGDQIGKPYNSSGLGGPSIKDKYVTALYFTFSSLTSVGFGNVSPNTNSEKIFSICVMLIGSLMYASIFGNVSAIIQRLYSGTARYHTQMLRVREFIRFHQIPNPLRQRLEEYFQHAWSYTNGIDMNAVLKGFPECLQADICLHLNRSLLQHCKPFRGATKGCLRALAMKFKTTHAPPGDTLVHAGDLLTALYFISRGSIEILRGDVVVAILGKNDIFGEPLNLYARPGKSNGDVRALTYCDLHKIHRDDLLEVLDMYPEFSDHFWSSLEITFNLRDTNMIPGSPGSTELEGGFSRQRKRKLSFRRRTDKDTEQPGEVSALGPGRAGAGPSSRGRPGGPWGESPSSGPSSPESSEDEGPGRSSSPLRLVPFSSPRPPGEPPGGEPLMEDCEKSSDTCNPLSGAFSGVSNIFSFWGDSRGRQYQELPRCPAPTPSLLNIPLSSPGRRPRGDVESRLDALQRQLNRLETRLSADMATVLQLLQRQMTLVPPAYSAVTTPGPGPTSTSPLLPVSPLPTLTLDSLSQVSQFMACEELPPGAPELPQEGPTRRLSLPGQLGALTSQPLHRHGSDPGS
T4 sequence (P21918 whole entry): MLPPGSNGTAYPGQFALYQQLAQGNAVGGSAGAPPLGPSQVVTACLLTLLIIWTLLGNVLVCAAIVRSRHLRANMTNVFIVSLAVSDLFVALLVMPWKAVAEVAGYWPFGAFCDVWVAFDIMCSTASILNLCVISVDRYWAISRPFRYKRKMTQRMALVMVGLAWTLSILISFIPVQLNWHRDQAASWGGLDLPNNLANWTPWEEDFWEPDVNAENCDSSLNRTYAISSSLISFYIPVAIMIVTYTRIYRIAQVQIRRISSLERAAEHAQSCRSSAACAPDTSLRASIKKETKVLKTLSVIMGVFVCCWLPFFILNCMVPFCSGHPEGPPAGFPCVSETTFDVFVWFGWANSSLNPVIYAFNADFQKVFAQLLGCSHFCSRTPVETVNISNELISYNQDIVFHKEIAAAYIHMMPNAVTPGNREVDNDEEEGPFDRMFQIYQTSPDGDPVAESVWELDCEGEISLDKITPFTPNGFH
T9 sequence (P25021 whole entry): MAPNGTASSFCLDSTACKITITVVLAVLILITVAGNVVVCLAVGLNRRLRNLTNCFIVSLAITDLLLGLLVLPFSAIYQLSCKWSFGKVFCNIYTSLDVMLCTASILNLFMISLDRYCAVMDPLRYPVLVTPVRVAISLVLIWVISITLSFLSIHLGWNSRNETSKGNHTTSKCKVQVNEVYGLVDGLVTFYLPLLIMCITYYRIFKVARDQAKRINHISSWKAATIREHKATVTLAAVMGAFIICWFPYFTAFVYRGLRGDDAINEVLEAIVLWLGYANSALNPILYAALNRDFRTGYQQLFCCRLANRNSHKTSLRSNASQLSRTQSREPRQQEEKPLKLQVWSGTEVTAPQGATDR
T7 sequence (P41145 whole entry): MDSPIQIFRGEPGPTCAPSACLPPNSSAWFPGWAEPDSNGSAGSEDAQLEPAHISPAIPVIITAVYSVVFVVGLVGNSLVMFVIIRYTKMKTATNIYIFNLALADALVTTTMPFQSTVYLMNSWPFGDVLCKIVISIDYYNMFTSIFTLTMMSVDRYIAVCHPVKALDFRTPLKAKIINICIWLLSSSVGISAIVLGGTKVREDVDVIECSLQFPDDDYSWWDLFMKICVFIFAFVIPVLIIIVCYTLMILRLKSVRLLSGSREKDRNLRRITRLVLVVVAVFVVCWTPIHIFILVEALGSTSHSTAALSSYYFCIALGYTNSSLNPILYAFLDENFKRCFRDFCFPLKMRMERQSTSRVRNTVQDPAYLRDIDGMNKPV
Sequence of 5-ht5a (P47898 whole entry, species assumed): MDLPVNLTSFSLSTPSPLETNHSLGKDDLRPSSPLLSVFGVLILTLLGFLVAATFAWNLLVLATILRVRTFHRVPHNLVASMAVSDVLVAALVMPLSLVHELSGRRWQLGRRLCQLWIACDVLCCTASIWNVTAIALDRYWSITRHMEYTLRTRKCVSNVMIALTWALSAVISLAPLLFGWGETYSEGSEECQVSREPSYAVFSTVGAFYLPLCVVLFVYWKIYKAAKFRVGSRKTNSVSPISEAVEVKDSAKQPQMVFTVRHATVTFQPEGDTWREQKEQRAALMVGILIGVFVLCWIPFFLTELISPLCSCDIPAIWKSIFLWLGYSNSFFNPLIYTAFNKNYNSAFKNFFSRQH

Cc1cc(/C=C2/SC(=S)NC2=O)c(C)n1-c1cccnc1 [optovin]
effect on hERG activity (hERG potassium channel): no effect on hERG activity | hydroxyl radical and superoxide generation ([1]; 415 nm light): neither hydroxyl radicals nor superoxide | singlet oxygen generation ([1]; 415 nm light): generates singlet oxygen | singlet oxygen quantum yield ([1]; estimated by comparison with PEI-ce6): about 0.04 | peak absorbance [2]: 415 nm | Avg % inhibition (Beta2) (Beta2): −3.8% | Avg % inhibition (5-HT7) (5-HT7): −0.8% | Avg % inhibition (A4B2) (A4B2): −26.8% | Avg % inhibition (A4B2**) (A4B2): −29.1% | Avg % inhibition (5-ht5a) (5-ht5a): −17.7% | Avg % inhibition (Alpha1A) (Alpha1A): −5.4% | Avg % inhibition (BZP Rat Brain Site) (BZP Rat Brain Site): 5.3% | Avg % inhibition (5-HT6) (5-HT6): −16.5% | Avg % inhibition (M4) (M4): 3.5% | Avg % inhibition (D1) (D1): 9.0% | Avg % inhibition (A4B4) (A4B4): −8.8% | Avg % inhibition (Alpha1D) (Alpha1D): 30.4% | Avg % inhibition (D5) (D5): 13.6% | Avg % inhibition (SERT) (SERT): 75.8% | Avg % inhibition (Alpha2B) (Alpha2B): 8.9% | Avg % inhibition (D3) (D3): 34.3% | Avg % inhibition (KOR) (KOR): 10.9% | Avg % inhibition (PBR) (PBR): −11.3% | Avg % inhibition (A2B4) (A2B4): −7.8% | Avg % inhibition (A3B2) (A3B2): −5.6% | Avg % inhibition (GABAA) (GABAA): −2.2% | Avg % inhibition (5-HT2A) (5-HT2A): −1.1% | Avg % inhibition (M2) (M2): 6.6% | Avg % inhibition (H2) (H2): 41.1% | Avg % inhibition (D2) (D2): −6.8% | Avg % inhibition (D4) (D4): 0.2%
